The values below are quoted from earlier work in patent publication EP3865125A1, “PHARMACEUTICAL COMPOSITION COMPRISING ELIGLUSTAT” (Kashiv Biosciences, LLC, priority 2020, dated 2021).

The conditions of series [1]: rats, 50-mg/kg dose.
For series [2] the following is noted: dogs, 50-mg/kg dose.
Assay in series [3]: not given
This is another data set of the same source.

For series [4] the following is noted: mice, 50-mg/kg dose.

Where two headings read alike, the source gives them in different places.

`CCCCCCCC(=O)N[C@H](CN1CCCC1)[C@H](O)c1ccc2c(c1)OCCO2` [Eliglustat]: the oral bioavailability in series [1] is recorded as 39%; the oral bioavailability in series [2] is recorded as 42%; the oral bioavailability entry (oral route, significant first pass metabolism) is “less than 5%”; the oral bioavailability in series [4] is recorded as 8%. The absolute bioavailability (CERDELGA capsule, CHMP assessment report) is 4.49% ± 4.13%. In addition, the “systemic exposure AUC0-12 at steady state compared to after the first dose (AUC0-inf)” value (multiple oral doses of 84 mg twice daily in EMs) is “up to 2 fold”. Moreover, the solubility result in series [3] is “high solubility”.
